The values below come from ChEMBL document CHEMBL4828780, “Novel Compounds for Preventing SARS-CoV-2 Viral Replication and Treating COVID-19” (ACS Med Chem Lett, 2021).

The Ki is a dissociation constant, usually derived from enzyme kinetics or from competition with a known ligand. Low values mean a stronger hold on the target, high ones a looser hold on the target.

This experiment can be described thus: Inhibition of SARS-CoV 3C-like protease using Dabcyl-KTSAVLQ-SGFRKME-Edans peptide as substrate incubated for 60 mins by FRET assay.

Molecules are shown by their SMILES.

As to `COc1cccc2[nH]c(C(=O)N[C@@H](CC(C)C)C(=O)N[C@@H](C[C@@H]3CCNC3=O)C(=O)COC(=O)CN(C)C)cc12`, the affinity corresponds to a Ki of 2.98 nM.
On to `COc1cccc2[nH]c(C(=O)N[C@@H](CC(C)C)C(=O)N[C@@H](C[C@@H]3CCNC3=O)C(=O)COC(=O)[C@H]3CCCCN3C)cc12`, for which the inhibition constant (Ki) came out at 1.42 nM.
Under `COc1cccc2[nH]c(C(=O)N[C@@H](CC(C)C)C(=O)N[C@@H](C[C@@H]3CCNC3=O)C(=O)COC(=O)[C@@H]3CCCN3C)cc12` stands 2.47 nM; under `COc1cccc2[nH]c(C(=O)N[C@@H](CC(C)C)C(=O)N[C@@H](C[C@@H]3CCNC3=O)C(=O)COC(=O)c3ccncc3)cc12`, 0.598 nM; under `COc1cccc2[nH]c(C(=O)N[C@@H](CC(C)C)C(=O)N[C@@H](C[C@@H]3CCNC3=O)C(=O)COC(=O)[C@H]3CCCN3C)cc12`, 0.0321 nM.
`COc1cccc2[nH]c(C(=O)N[C@@H](CC(C)C)C(=O)N[C@@H](C[C@@H]3CCNC3=O)C(=O)COC(=O)c3c(C)ncnc3C)cc12` came in with a Ki of 0.928 nM.
